Assay results taken from patent US9127001B2, “Substituted 4,5,6,7-tetrahydro-1H-pyrazolo[4,3-c]pyridines, their use as medicament, and pharmaceutical preparations comprising them” (Sanofi, priority 2011, dated 2015).

Each compound was assayed against Human TASK-1 channels (Homo sapiens (Human), UniProt O14649) (assay: Activity on the TASK-1 channel in Xenopus oocytes (two-microelectrode voltage clamp)). Conditions: not given.
Type: cell-based
Procedure: Human TASK-1 channels were expressed in Xenopus oocytes. For this purpose, oocytes were isolated from Xenopus laevis and defoliculated. Subsequently, TASK-1-encoding RNA synthesized in vitro was injected into oocytes. […] Data were acquired and analyzed using a TEC-10cx amplifier (NPI Electronic, Tamm, Germany) connected to an ITC-16 interface (Instrutech Corp., Long Island, USA) and Pulse software (HEKA Elektronik, Lambrecht, Germany). […] Oocytes were continuously superfused with ND96 buffer containing: NaCl 96 mM, KCl 2 mM, CaCl2 1.8 mM, MgCl2 1 mM, HEPES 5 mM (pH adjusted to 7.4 with NaOH). All experiments were performed at room temperature.
Test substances were consecutively added to the bath solution at rising concentrations. […] IC50 values were obtained by fitting the data to the general dose-response equation.

Sequence of Human TASK-1 channels (O14649 whole entry): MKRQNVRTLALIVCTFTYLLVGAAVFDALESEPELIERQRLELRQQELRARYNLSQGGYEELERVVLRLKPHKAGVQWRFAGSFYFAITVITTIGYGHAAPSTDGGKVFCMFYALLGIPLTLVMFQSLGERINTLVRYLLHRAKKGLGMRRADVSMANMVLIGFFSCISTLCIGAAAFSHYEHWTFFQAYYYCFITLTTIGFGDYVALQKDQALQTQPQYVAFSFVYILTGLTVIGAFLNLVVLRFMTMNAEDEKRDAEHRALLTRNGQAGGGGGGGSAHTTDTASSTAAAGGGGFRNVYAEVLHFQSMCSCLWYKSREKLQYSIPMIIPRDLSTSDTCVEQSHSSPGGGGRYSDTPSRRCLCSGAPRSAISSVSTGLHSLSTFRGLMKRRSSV

SMILES	inhibition at 5 µM [%]
CC(=O)N1CCc2c(c(-c3cccc(C)c3)nn2Cc2ccc(Cl)nc2)C1 [Example 6p, 1-[1-(6-Chloro-pyridin-3-ylmethyl)-3-m-tolyl-1,4,6,7-tetrahydro-pyrazolo[4,3-c]pyridin-5-yl]-ethanone]	88
CC(=O)N1CCc2c(c(-c3cccc(C)n3)nn2Cc2ccc(F)cc2F)C1 [Example 6v, 1-[1-(2,4-Difluoro-benzyl)-3-(6-methyl-pyridin-2-yl)-1,4,6,7-tetrahydro-pyrazolo[4,3-c]pyridin-5-yl]-ethanone]	73
CC(=O)N1CCc2c(c(-c3cccc(C(F)(F)F)n3)nn2C(C)c2ccc(F)cc2)C1 (stereo not shown) [Example 6u, 1-[1-[1-(4-Fluoro-phenyl)-ethyl]-3-(6-trifluoromethyl-pyridin-2-yl)-1,4,6,7-tetrahydro-pyrazolo[4,3-c]pyridin-5-yl]-ethanone]	89
CC(=O)N1CCc2c(c(-c3cccc(Cl)c3)nn2Cc2ccc(F)cc2C)C1 [Example 6ba, 1-[3-(3-Chloro-phenyl)-1-(4-fluoro-2-methyl-benzyl)-1,4,6,7-tetrahydro-pyrazolo[4,3-c]pyridin-5-yl]-ethanone]	81
CC(C)(C)OCC(=O)N1CCc2c(c(-c3cccc(C#N)c3)nn2Cc2ccc(F)cc2F)C1 [Example 8d, 3-[5-(2-tert-Butoxy-acetyl)-1-(2,4-difluoro-benzyl)-4,5,6,7-tetrahydro-1H-pyrazolo[4,3-c]pyridin-3-yl]-benzonitrile]	75
CC(=O)N1CCc2c(c(-c3ncccc3C)nn2Cc2ccc(F)cc2F)C1 [Example 6ab, 1-[1-(2,4-Difluoro-benzyl)-3-(3-methyl-pyridin-2-yl)-1,4,6,7-tetrahydro-pyrazolo[4,3-c]pyridin-5-yl]-ethanone]	76
CC(=O)N1CCc2c(c(-c3cccs3)nn2Cc2ccc(F)cc2F)C1 [Example 6af, 1-[1-(2,4-Difluoro-benzyl)-3-thiophen-2-yl-1,4,6,7-tetrahydro-pyrazolo[4,3-c]pyridin-5-yl]-ethanone]	72
COc1ccnc(-c2nn(Cc3ccc(F)cc3F)c3c2CN(C(C)=O)CC3)c1 [Example 6ac, 1-[1-(2,4-Difluoro-benzyl)-3-(4-methoxy-pyridin-2-yl)-1,4,6,7-tetrahydro-pyrazolo[4,3-c]pyridin-5-yl]-ethanone]	80
CC(=O)N1CCc2c(c(-c3cccc(C(F)(F)F)c3)nn2Cc2ccc(C)cc2F)C1 [Example 6bn, 1-[1-(2-Fluoro-4-methyl-benzyl)-3-(3-trifluoromethyl-phenyl)-1,4,6,7-tetrahydro-pyrazolo[4,3-c]pyridin-5-yl]-ethanone]	81
CC(=O)N1CCc2c(c(-c3cccc(Cl)c3)nn2Cc2ccc(Cl)s2)C1 [Example 6aj, 1-[3-(3-Chloro-phenyl)-1-(5-chloro-thiophen-2-ylmethyl)-1,4,6,7-tetrahydro-pyrazolo[4,3-c]pyridin-5-yl]-ethanone]	76
CC(=O)N1CCc2c(c(-c3cccc(C#N)c3)nn2Cc2cc(F)ccc2F)C1 [Example 6ay, 3-[5-Acetyl-1-(2,5-difluoro-benzyl)-4,5,6,7-tetrahydro-1H-pyrazolo[4,3-c]pyridin-3-yl]-benzonitrile]	86

More lines, now with the values ahead:

inhibition at 5 µM [%]	SMILES
80	COCC(=O)N1CCc2c(c(-c3cccc(C#N)c3)nn2Cc2ccc(F)cc2F)C1 [Example 8n, 3-[1-(2,4-Difluoro-benzyl)-5-(2-methoxy-acetyl)-4,5,6,7-tetrahydro-1H-pyrazolo[4,3-c]pyridin-3-yl]-benzonitrile]
58	CC(c1ccc(F)cc1)n1nc(-c2ccc(F)cc2)c2c1CCN(C(=O)NC(C)(C)C)C2 (single isomer, unassigned) [Example 11f, 3-(4-Fluoro-phenyl)-1-[1-(4-fluoro-phenyl)-ethyl]-1,4,6,7-tetrahydro-pyrazolo[4,3-c]pyridine-5-carboxylic acid tert-butylamide]

Same assay, conditions: human TASK-1 expressed in Xenopus oocytes, currents during pulses to 40 mV, room temperature

SMILES	IC50 [nM]
COc1cccc(-c2nn(Cc3ccc(F)cc3F)c3c2CN(C(C)=O)CC3)c1 [Example 6at, 1-[1-(2,4-Difluoro-benzyl)-3-(3-methoxy-phenyl)-1,4,6,7-tetrahydro-pyrazolo[4,3-c]pyridin-5-yl]-ethanone]	720
CC(=O)N1C2CCC1c1c(-c3cccc(C#N)c3)nn(Cc3ccc(F)cc3F)c1C2 (stereo not shown) [Example 6n, 3-[11-Acetyl-5-(2,4-difluoro-benzyl)-4,5,11-triaza-tricyclo[6.2.1.02,6]undeca-2(6),3-dien-3-yl]-benzonitrile]	91
CC(=O)N1CCc2c(c(-c3cccc(C(F)(F)F)n3)nn2Cc2ccc(F)cc2F)C1 [Example 6i, 1-[1-(2,4-Difluoro-benzyl)-3-(6-trifluoromethyl-pyridin-2-yl)-1,4,6,7-tetrahydro-pyrazolo[4,3-c]pyridin-5-yl]-ethanone]	216
CC(=O)N1CCc2c(c(-c3ccc(F)cc3)nn2Cc2c(F)cccc2F)C1 [Example 6aq, 1-[1-(2,6-Difluoro-benzyl)-3-(4-fluoro-phenyl)-1,4,6,7-tetrahydro-pyrazolo[4,3-c]pyridin-5-yl]-ethanone]	359
CC(=O)N1CCc2c(c(-c3cccc(OC(F)(F)F)c3)nn2C(C)c2ccc(F)cc2)C1 (stereo not shown) [Example 6aw, 1-[1-[1-(4-Fluoro-phenyl)-ethyl]-3-(3-trifluoromethoxy-phenyl)-1,4,6,7-tetrahydro-pyrazolo[4,3-c]pyridin-5-yl]-ethanone]	947
CC(=O)N1CCc2c(c(-c3cccc(C(F)(F)F)c3)nn2Cc2ccc(Cl)nc2)C1 [Example 6b, 1-[1-(6-Chloro-pyridin-3-ylmethyl)-3-(3-trifluoromethyl-phenyl)-1,4,6,7-tetrahydro-pyrazolo[4,3-c]pyridin-5-yl]-ethanone]	172
CC(=O)N1CCc2c(c(-c3ccc(F)cc3)nn2Cc2ccc(Cl)c(F)c2)C1 [Example 6bg, 1-[1-(4-Chloro-3-fluoro-benzyl)-3-(4-fluoro-phenyl)-1,4,6,7-tetrahydro-pyrazolo[4,3-c]pyridin-5-yl]-ethanone]	398
CC(=O)N1CCc2c(c(-c3ccc(F)cc3)nn2C(C)c2ccc(F)cc2)C1 (single isomer, unassigned; (+)) [Example 6be, (+)-1-{3-(4-Fluoro-phenyl)-1-[1-(4-fluoro-phenyl)-ethyl]-1,4,6,7-tetrahydro-pyrazolo[4,3-c]pyridin-5-yl}-ethanone]	500

Further lines, results first:

IC50 [nM]	SMILES
906	CS(=O)(=O)c1ccc(C(=O)N2CCc3c(c(-c4cccc(C#N)c4)nn3Cc3ccc(F)cc3F)C2)cc1 [Example 8k, 3-[1-(2,4-Difluoro-benzyl)-5-(4-methanesulfonyl-benzoyl)-4,5,6,7-tetrahydro-1H-pyrazolo[4,3-c]pyridin-3-yl]-benzonitrile]
511	CC(c1ccc(F)cc1)n1nc(-c2ccc(F)cc2)c2c1CCN(C(=O)N1CCOCC1)C2 (single isomer, unassigned) [Example 12b, {3-(4-Fluoro-phenyl)-1-[1-(4-fluoro-phenyl)-ethyl]-1,4,6,7-tetrahydro-pyr-azolo[4,3-c]pyridin-5-yl}-morpholin-4-yl-methanone]
1280	O=C(c1ccc(F)cc1)N1CCc2c(c(-c3ccc(F)cc3)nn2Cc2ccccc2)C1 [Example 8f, [1-Benzyl-3-(4-fluoro-phenyl)-1,4,6,7-tetrahydro-pyrazolo[4,3-c]pyridin-5-yl]-(4-fluoro-phenyl)-methanone]
1620	CS(=O)(=O)c1cccc(C(=O)N2CCc3c(c(-c4cccc(C#N)c4)nn3Cc3ccc(F)cc3F)C2)c1 [Example 8e, 3-[1-(2,4-Difluoro-benzyl)-5-(3-methanesulfonyl-benzoyl)-4,5,6,7-tetrahydro-1H-pyrazolo[4,3-c]pyridin-3-yl]-benzonitrile]
131	CC(C)(C)C(=O)N1CCc2c(c(-c3cccc(C#N)c3)nn2Cc2ccc(F)cc2F)C1 [Example 8o, 3-[1-(2,4-Difluoro-benzyl)-5-(2,2-dimethyl-propionyl)-4,5,6,7-tetrahydro-1H-pyrazolo[4,3-c]pyridin-3-yl]-benzonitrile]
19	CC(C)C(=O)N1CCc2c(c(-c3cccc(C#N)c3)nn2Cc2ccc(F)cc2F)C1 [Example 8b, 3-[1-(2,4-Difluoro-benzyl)-5-isobutyryl-4,5,6,7-tetrahydro-1H-pyrazolo[4,3-c]pyridin-3-yl]-benzonitrile]
462	CC(=O)N1CCc2c(c(-c3cccc(C#N)n3)nn2Cc2ccc(F)cc2F)C1 [Example 13b, 6-[5-Acetyl-1-(2,4-difluoro-benzyl)-4,5,6,7-tetrahydro-1H-pyrazolo[4,3-c]pyridin-3-yl]-pyridine-2-carbonitrile]
47	N#Cc1cccc(-c2nn(Cc3ccc(F)cc3F)c3c2CN(C(=O)C2CC2)CC3)c1 [Example 8c, 3-[5-Cyclopropanecarbonyl-1-(2,4-difluoro-benzyl)-4,5,6,7-tetrahydro-1H-pyrazolo[4,3-c]pyridin-3-yl]-benzonitrile]
1150	Cn1cncc1C(=O)N1CCc2c(c(-c3cccc(C#N)c3)nn2Cc2ccc(F)cc2F)C1 [Example 8w, 3-[1-(2,4-Difluoro-benzyl)-5-(3-methyl-3H-imidazole-4-carbonyl)-4,5,6,7-tetrahydro-1H-pyrazolo[4,3-c]pyridin-3-yl]-benzonitrile]
422	CC(=O)N1CCc2c(c(-c3cc(C#N)ccn3)nn2Cc2ccc(F)cc2F)C1 [Example 13a, 2-[5-Acetyl-1-(2,4-difluoro-benzyl)-4,5,6,7-tetrahydro-1H-pyrazolo[4,3-c]pyridin-3-yl]-isonicotinonitrile]
